Key:
Format in all cases: cell-based
[1] = tested on: Rice brown spot fungus (Cochliobolus miyabeanus); experiment: Test Example 6: control test against rice brown spot fungus, titer plate growth; details: 150 ppm in DMSO, 1 μL + 150 μL YB liquid medium; 23° C., 3 days; absorbance at 550 nm
Method: (§1) The untreated groups in the Test Example 3, the Test Example 5 and the Test Example 6 represents a treated group in which the procedures are carried out under the same conditions as those described in each of Test Examples except that DMSO is dispensed in place of a diluted DMSO solution containing the Present compound. The untreated groups in the Test Example 7 and the Test Example 15 represents a test in which the procedures are carried out under the same conditions as those described in each of the Test Examples except that DMSO is dispensed in place of a diluted DMSO solution containing the present compound. Also, the untreated groups in the Test Example 8, the Test Example 9, the Test Example 10 and the Test Example 11 represents a test in which a diluted aqueous solution of the formulation containing the present compound isn't sprayed.
The present compound 77 was diluted with DMSO so as to contain 150 ppm, and 1 μL of the dilution solutions were dispensed into titer plate (96 well), and thereafter, thereto was then dispensed 150 μL of YB liquid medium to which conidia of Cochliobolus miyabeanus were inoculated in advance. This plate was cultured at 23° C. for 3 days, thereby allowing Cochliobolus miyabeanus to undergo proliferation, and the absorbance at 550 nm of each well of the titer plate was then measured to determine a degree of growth of the Cochliobolus miyabeanus.

[2] = tested on: Barley scald fungus (Rhynchosporium secalis); experiment: Test Example 3: control test against barley scald fungus, titer plate growth; details: 150 ppm in DMSO, 1 μL + 150 μL PDB broth; 18° C., 7 days; absorbance at 550 nm
Method: as §1, with “Also, the untreated groups in the Test Example 8, the Test Example 9, the Test Example 10 and the Test Example 11 represents a test in which a diluted aqueous solution of the formulation containing the present compound isn't sprayed.” left out
The present compound 77 was diluted with DMSO so as to contain 150 ppm, and 1 μL of the dilution solutions were dispensed into titer plate (96 well), and thereafter, thereto was then dispensed 150 μL of a potato dextrose broth (PDB broth) to which conidia of Rhynchosporium secalis were inoculated in advance. This plate was cultured at 18° C. for 7 days, thereby allowing Rhynchosporium secalis to undergo proliferation, and the absorbance at 550 nm of each well of the titer plate was then measured to determine a degree of growth of the Rhynchosporium secalis.

[3] = tested on: Peach scab fungus (Cladosporium carpophilum); experiment: Test Example 5: control test against peach scab fungus, titer plate growth; details: 150 ppm in DMSO, 1 μL + 150 μL PDB broth; 18° C., 5 days; absorbance at 550 nm
Method: as §1, with “Also, the untreated groups in the Test Example 8, the Test Example 9, the Test Example 10 and the Test Example 11 represents a test in which a diluted aqueous solution of the formulation containing the present compound isn't sprayed.” left out
The present compound 77 was diluted with DMSO so as to contain 150 ppm, and 1 μL of the dilution solutions were dispensed into titer plate (96 well), and thereafter, thereto was then dispensed 150 μL of a potato dextrose broth (PDB broth) to which conidia of Cladosporium carpophilum were inoculated in advance. This plate was cultured at 18° C. for 5 days, thereby allowing Cladosporium carpophilum to undergo proliferation, and the absorbance at 550 nm of each well of the titer plate was then measured to determine a degree of growth of the Cladosporium carpophilum.

Measured: growth in the treated well compared to the growth in an untreated well

O=S(=O)(c1cccc(-c2cc(F)c(Cl)c(F)c2)c1)c1ccncn1 [compound 77]
≤ 50%: all assays above

From US20250212876A1, “METHOD FOR CONTROLLING PLANT DISEASES” (SUMITOMO CHEMICAL COMPANY, LIMITED, priority 2022, published 2025)
